Entries after “also recorded” stand apart in the source; their conditions may differ.
Experiments:
[1] = Phase 1 study in AML or high risk MDS: safety (DLT); format: in vivo
Experimental: (§1) This study will be conducted in 2 parts: an initial dose escalation and dose expansion phase. […] Three patients with AML or MDS will be enrolled at the designated dose. If none of the first 3 patients experience a DLT during the first cycle, patients may be enrolled into the next higher dose level of 300 mg bid until a safe and effective RP2D is established.
(§2) This study is expected to enroll approximately 18 patients to establish the initial RP2D.
(§3) The major study inclusion and exclusion criteria are as follows: Relapsed or refractory AML (primary or secondary, including treatment-related) after at least one standard treatment (including chemotherapy, re-induction therapy or stem cell transplantation) based on the assessment of the investigator or high/very high risk relapsed/refractory MDS (IPSS—R criteria), following at least 6 cycles of hypomethylating agents [HMA] or evidence of early progression.

[2] = tested on: Waldenstrom's macroglobulinemia (WM); experiment: Phase 1 dose-escalation study, WM patient case: serum IgM, m-protein and response; format: in vivo, human
Description: The patient remained asymptomatic for over 4 years with a slow increase in m-protein and IgM during that time. By mid-2017 they started to experience increased fatigue. […] There was no evidence of CXCR4 genomic alteration. […] Several options were discussed including clinical trials and standard of care Bruton's tyrosine kinase inhibitor (BTKi) therapy.
Quantitative immunoglobulins and serum protein electrophoresis were obtained each cycle to determine response to treatment (FIG. 1).
The patient initiated treatment at the first dose level, 50 mg. […] Using a standard 3+3 design the subsequent dose level, 100 mg po BID, was cleared per protocol. […] They reported a significant improvement in their quality of life with resolution of fatigue and returned to a rigorous daily exercise program that they had been unable to perform for the last 2 years due to WM-related symptoms. […] Based on evolving safety data at higher dose levels, the patient was escalated to […] starting with cycle 20 in 1/2020.

[3] = tested on: AML or high risk MDS; experiment: Phase 1 study in AML or high risk MDS: marrow response; format: in vivo, human
Experimental: as §1, §2, §3

[4] = tested on: NF-kB p-p50 S337; experiment: Western blot of NF-kB p-p50 S337 in OCL-LY10 cells; format: cell-based; settings: 3 μM and 10 μM, 48 h, vs DMSO
Experimental: (§4) At 48 h post-treatment, cell lysates were obtained. Protein sample concentration was quantified and equal amount 20 μg of whole protein extract was loaded in each well of SDS-polyacrylamide gel. Cell extracts were separated by 10% SDS-PAGE, transferred to nitrocellulose membrane, and probed as indicated. The following antibodies were used for immunoblot analysis: NF-kB p-p50 S337 (Santa Cruz Biotechnology) and b-actin (Cell Signaling Technology).

[5] = tested on: THP-1 xerographs; experiment: THP-1 leukemic xerographs: disease burden; format: in vivo; settings: 6 weeks of treatment at 12.5 mg/kg
[6] = tested on: NF-kB p-p50 S337; experiment: Western blot of NF-kB p-p50 S337 in TF-1 (AML) cells; format: cell-based; settings: 3 μM and 10 μM, 48 h, vs DMSO
Experimental: as §4

[7] = tested on: resistant or refractory, advanced NHL; experiment: Phase I dose escalation trial of oral monotherapy in NHL: tumor reduction; format: in vivo, human; settings: all doses
Experimental: Seven dosing cohorts included 50 and 100 mg QD, and 50, 100, 200, 300, or 400 mg BID of daily continuous oral monotherapy in 21-Day cycles. Objective included safety and tolerance (primary), pk/pd and early efficacy (secondary), and biomarker correlations (exploratory). 31 patients with resistant or refractory, advanced NHL have been enrolled.

[8] = tested on: in vivo models of non-Hodgkin's lymphoma; experiment: In vivo models of non-Hodgkin's lymphoma: tumor growth; settings: FIGS. 22A-C, each model

With `Cc1cc(-c2nc(C(=O)Nc3cc4oc(N5CCOCC5)nc4nc3N3CC[C@@H](O)C3)co2)ccn1` [Compound 1, emavusertib] the DLT ([1]; Cohort 1, 200 mg BID, 3 patients with hr-MDS, 1st cycle) was “No DLT”, the “dose reduction for Gr. 3 dizziness” value ([1]; Cohort 1, 200 mg BID, C2) was 1 and the DLT ([1]; Cohort 2, 300 mg BID, first 3 patients) was “No DLT”. For the same compound, the “fatigue (baseline symptom)” value ([2]; WM patient, 200 mg po BID, by summer of 2019) was “completely resolved”, the “dose dependence of response / tumor burden” value ([2]; human patient with intra-patient dose escalation) was “shrinking in a dose-dependent manner; also recorded: dose/response relationship; also recorded: dose-dependent objective response” and the marrow blasts ([3]; all initial patients, cycle 1) was “marrow blast reduction”. For the same compound, the marrow complete responses ([3]; initial patients, cycle 1) was “several marrow complete responses”, the clinical activity ([3]; relapsed/refractory AML and high-risk MDS, ongoing Phase 1 study) was “clinical activity” and the “expression of NF-kB p-p50 S337” value [4] was “downregulated”. For the same compound, the disease burden [5] was “decreased the disease burden”, the “expression of NF-kB p-p50 S337” value [6] was “downregulated” and the “evaluable patients with overall tumor burden decreases of ≥20% from baseline” value [7] was “Eight of 28”. For the same compound, the tumor growth [8] was “reduced tumor growth”.
